Reference: patent US9133148B2, “Carbamate compounds and of making and using same” (Abide Therapeutics, Inc., priority 2012, dated 2015)

Experiments:
Type in all cases: biochemical
Settings in all cases: mouse brain membrane proteome
FAAH = FAAH (Mus musculus (Mouse), UniProt O08914); assay: In vitro competitive activity-based protein profiling (FP-Rh), mouse FAAH
Method: (§1) In Vitro Competitive Activity-Based Protein Profiling.
(§2) Proteomes (mouse brain membrane fraction or cell lysates) ([…], 1.0 mg/mL total protein concentration) were preincubated with varying concentrations of inhibitors at 37° C. After 30 min, FP-Rh (1.0 μL, 50 μM in DMSO) was added and the mixture was incubated for another 30 min at 37° C. Reactions were quenched with SDS loading buffer (50 μL—4×) and run on SDS-PAGE.

ABHD6 = ABHD6 (Mus musculus (Mouse), UniProt Q8R2Y0); assay: In vitro competitive activity-based protein profiling (FP-Rh), mouse ABHD6
ABHD6, sequence (Q8R2Y0 whole entry): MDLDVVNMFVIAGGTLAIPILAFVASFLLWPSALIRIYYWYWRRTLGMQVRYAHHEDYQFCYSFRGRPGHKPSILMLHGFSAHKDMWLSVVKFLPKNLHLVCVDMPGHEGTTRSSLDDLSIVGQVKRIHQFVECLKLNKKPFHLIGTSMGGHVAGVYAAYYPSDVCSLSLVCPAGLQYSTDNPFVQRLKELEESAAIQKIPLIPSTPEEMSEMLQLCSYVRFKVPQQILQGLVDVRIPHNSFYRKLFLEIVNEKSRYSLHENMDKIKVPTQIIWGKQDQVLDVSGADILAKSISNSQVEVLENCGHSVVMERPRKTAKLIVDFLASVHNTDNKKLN
Method: as §1, §2

MAGL = MAGL (Mus musculus (Mouse), UniProt O35678); assay: In vitro competitive activity-based protein profiling (FP-Rh), mouse MAGL
MAGL, sequence (O35678 whole entry): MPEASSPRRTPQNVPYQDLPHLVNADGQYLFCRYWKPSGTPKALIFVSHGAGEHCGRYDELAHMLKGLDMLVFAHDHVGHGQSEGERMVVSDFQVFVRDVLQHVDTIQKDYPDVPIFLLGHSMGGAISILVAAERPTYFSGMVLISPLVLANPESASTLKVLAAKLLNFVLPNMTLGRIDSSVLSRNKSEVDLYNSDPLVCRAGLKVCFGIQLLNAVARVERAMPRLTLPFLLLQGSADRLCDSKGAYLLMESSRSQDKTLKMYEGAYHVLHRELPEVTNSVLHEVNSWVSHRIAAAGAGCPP
Method: as §1, §2

FAAH, sequence (O08914 whole entry): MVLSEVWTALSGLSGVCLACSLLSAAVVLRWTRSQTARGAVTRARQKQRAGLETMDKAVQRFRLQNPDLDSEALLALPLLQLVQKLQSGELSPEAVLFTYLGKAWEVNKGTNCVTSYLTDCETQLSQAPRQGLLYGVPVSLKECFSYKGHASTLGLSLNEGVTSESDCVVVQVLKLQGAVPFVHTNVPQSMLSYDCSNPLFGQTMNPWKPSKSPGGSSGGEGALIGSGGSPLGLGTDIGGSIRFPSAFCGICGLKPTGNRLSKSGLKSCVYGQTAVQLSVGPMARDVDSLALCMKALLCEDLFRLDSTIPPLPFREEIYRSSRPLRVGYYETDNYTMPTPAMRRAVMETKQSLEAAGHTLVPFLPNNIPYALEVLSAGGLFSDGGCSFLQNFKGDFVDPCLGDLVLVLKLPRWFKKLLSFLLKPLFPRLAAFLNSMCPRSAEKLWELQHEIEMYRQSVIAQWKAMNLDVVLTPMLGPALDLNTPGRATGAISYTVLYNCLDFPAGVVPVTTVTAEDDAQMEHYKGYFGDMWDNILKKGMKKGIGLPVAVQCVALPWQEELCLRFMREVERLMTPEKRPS

SMILES	IC50 (FAAH; competitive ABPP) [nM]	IC50 (FAAH; competitive ABPP (Table 7)) [nM]	IC50 (MAGL; competitive ABPP (Table 7)) [nM]	further results
O=C(Oc1ccc([N+](=O)[O-])cc1)N1CCC(C(O)(c2ccc3c(c2)OCO3)c2ccc3c(c2)OCO3)CC1 [A, 4-nitrophenyl 4-(dibenzo[d][1,3]dioxol-5-yl(hydroxy)methyl)piperidine-1-carboxylate, reference compound]	4700	–	–	IC50 (ABHD6; competitive ABPP): 100 to 1000 nM
O=C(OC(C(F)(F)F)C(F)(F)F)N1CCN(C(c2ccc(Cl)cc2)c2ccc(Cl)cc2)CC1 [Example 2b, 1,1,1,3,3,3-hexafluoropropan-2-yl 4-(bis(4-chlorophenyl)methyl)-piperazine-1-carboxylate]	> 10000	–	–	–
O=C(OC(C(F)(F)F)C(F)(F)F)N1CCN(C(c2ccc(-c3ccccc3)cc2)c2ccc3c(c2)OCO3)CC1 (centres unmarked) [Example 2g]	> 10000	–	–	IC50 (ABHD6; competitive ABPP): > 1000 nM; IC50 (MAGL; competitive ABPP): > 1000 nM
O=C(OC(C(F)(F)F)C(F)(F)F)N1CCN(C(c2cocn2)c2cocn2)CC1 [Example 2i, 1,1,1,3,3,3-hexafluoropropan-2-yl 4-(bis(oxazol-4-yl)methyl)piperazine-1-carboxylate]	> 6000	–	–	–
Cc1cc(Cl)ccc1C(c1ccc(Cl)cc1C)N1CCN(C(=O)OC(C(F)(F)F)C(F)(F)F)CC1 [Example 2j, 1,1,1,3,3,3-hexafluoropropan-2-yl 4-(bis(4-chloro-2-methylphenyl)methyl)piperazine-1-carboxylate]	> 10000	–	–	IC50 (ABHD6; competitive ABPP): > 1000 nM
O=C(OC(C(F)(F)F)C(F)(F)F)N1CCN(C(c2cccnc2)c2cccnc2)CC1 [Example 2l, 1,1,1,3,3,3-hexafluoropropan-2-yl 4-(di(pyridin-3-yl)methyl)piperazine-1-carboxylate]	> 10000	–	–	–
CC(C)(C)OC(=O)N1CCN(C(=O)OC(C(F)(F)F)C(F)(F)F)CC1 [Example 3d, 1-tert-butyl 4-(1,1,1,3,3,3-hexafluoropropan-2-yl)piperazine-1,4-dicarboxylate]	> 10000	–	–	IC50 (ABHD6; competitive ABPP): > 1000 nM; IC50 (MAGL; competitive ABPP): > 1000 nM
CN(Cc1cccc(-c2ccncc2)c1)C(=O)OC(C(F)(F)F)C(F)(F)F [Example 3f, 1,1,1,3,3,3-hexafluoropropan-2-yl methyl(3-(pyridin-4-yl)benzyl)-carbamate]	> 10000	–	–	IC50 (ABHD6; competitive ABPP): 100 to 1000 nM
O=C(O)C(OC(=O)N1CCN(C(c2ccc(Cl)cc2)c2ccc(Cl)cc2)CC1)C(F)(F)F (centres unmarked) [Example 6i, 2-((4-(bis(4-chlorophenyl)methyl)piperazine-1-carbonyl)oxy)-3,3,3-trifluoropropanoic acid]	> 10000	–	–	IC50 (ABHD6; competitive ABPP): > 1000 nM; IC50 (MAGL; competitive ABPP): > 1000 nM
COC(=O)C(OC(=O)N(C)CCc1ccccc1)C(F)(F)F (centres unmarked) [Example 7k, Methyl 3,3,3-trifluoro-2-((methyl(phenethyl)carbamoyl)oxy)propanoate]	> 10000	–	–	IC50 (ABHD6; competitive ABPP): > 1000 nM; IC50 (MAGL; competitive ABPP): > 1000 nM
O=C(OC(C(F)(F)F)C(F)(F)F)N1CCN(Cc2ccc(N3CCOCC3)cc2F)CC1 [Example 9a, 1,1,1,3,3,3-hexafluoropropan-2-yl 4-(2-fluoro-4-morpholinobenzyl)piperazine-1-carboxylate]	–	> 10000	100 to 1000	IC50 (ABHD6; competitive ABPP (Table 7)): 100 to 1000 nM
O=C(OC(C(F)(F)F)C(F)(F)F)N1CCN(Cc2ccc(N3CCCC3)c(F)c2)CC1 [Example 9aa, 1,1,1,3,3,3-hexafluoropropan-2-yl 4-(3-fluoro-4-(pyrrolidin-1-yl)benzyl)piperazine-1-carboxylate]	–	> 10000	100 to 1000	IC50 (ABHD6; competitive ABPP (Table 7)): 100 to 1000 nM
O=C(OC(C(F)(F)F)C(F)(F)F)N1CCN(Cc2ccc(N3CCCC3)cc2Cl)CC1 [Example 9ab, 1,1,1,3,3,3-hexafluoropropan-2-yl 4-[[2-chloro-4-(pyrrolidin-1-yl)phenyl]methyl]piperazine-1-carboxylate]	–	> 10000	100 to 1000	IC50 (ABHD6; competitive ABPP (Table 7)): > 1000 nM
O=C(OC(C(F)(F)F)C(F)(F)F)N1CCN(Cc2cccc(Cl)c2N2CCOCC2)CC1 [Example 9ad, 1,1,1,3,3,3-hexafluoropropan-2-yl 4-[[3-chloro-2-(morpholin-4-yl)phenyl]methyl]piperazine-1-carboxylate]	–	> 10000	–	–
O=C(OC(C(F)(F)F)C(F)(F)F)N1CCN(Cc2ccc(Cl)cc2-n2cccn2)CC1 [Example 9ae, 1,1,1,3,3,3-hexafluoropropan-2-yl 4-(4-chloro-2-(1H-pyrazol-1-yl)benzyl)piperazine-1-carboxylate]	–	> 10000	100 to 1000	IC50 (ABHD6; competitive ABPP (Table 7)): 100 to 1000 nM
O=C(OC(C(F)(F)F)C(F)(F)F)N1CCN(Cc2cc(Cl)ccc2N2CCOCC2)CC1 [Example 9ag, 1,1,1,3,3,3-hexafluoropropan-2-yl 4-[[5-chloro-2-(morpholin-4-yl)phenyl]methyl]piperazine-1-carboxylate]	–	> 10000	–	IC50 (ABHD6; competitive ABPP (Table 7)): > 1000 nM
O=C(OC(C(F)(F)F)C(F)(F)F)N1CCN(Cc2cccc(N3CCOCC3)c2)CC1 [Example 9ah, 1,1,1,3,3,3-hexafluoropropan-2-yl 4-(3-morpholinobenzyl)piperazine-1-carboxylate]	–	> 10000	< 100	IC50 (ABHD6; competitive ABPP (Table 7)): < 100 nM

SMILES	IC50 (FAAH; competitive ABPP) [nM]	IC50 (FAAH; competitive ABPP (Table 7)) [nM]	IC50 (MAGL; competitive ABPP (Table 7)) [nM]	further results
O=C(OC(C(F)(F)F)C(F)(F)F)N1CCN(Cc2ccc(C(F)(F)F)cc2N2CCCC2)CC1 [Example 9aq, 1,1,1,3,3,3-hexafluoropropan-2-yl 4-(2-(pyrrolidin-1-yl)-4-(trifluoromethyl)benzyl)piperazine-1-carboxylate]	–	> 10000	–	–
O=C(OC(C(F)(F)F)C(F)(F)F)N1CCN(Cc2ccc(C(F)(F)F)cc2N2CCOCC2)CC1 [Example 9c, 1,1,1,3,3,3-hexafluoropropan-2-yl 4-[[2-(morpholin-4-yl)-4-(trifluoromethyl)phenyl]methyl]piperazine-1-carboxylate]	–	> 10000	–	–
Cc1cc(N2CCOCC2)ccc1CN1CCN(C(=O)OC(C(F)(F)F)C(F)(F)F)CC1 [Example 9p, 1,1,1,3,3,3-hexafluoropropan-2-yl 4-(2-methyl-4-morpholinobenzyl)piperazine-1-carboxylate]	–	–	< 100	–
O=C(OC(C(F)(F)F)C(F)(F)F)N1CCN(Cc2ccc(Br)cc2N2CCCCC2)CC1 [Example 9q, 1,1,1,3,3,3-hexafluoropropan-2-yl 4-(4-bromo-2-(piperidin-1-yl)benzyl)piperazine-1-carboxylate]	–	–	100 to 1000	–
O=C(OC(C(F)(F)F)C(F)(F)F)N1CCN(Cc2ccc(Br)cc2N2CCOCC2)CC1 [Example 9r, 1,1,1,3,3,3-hexafluoropropan-2-yl 4-(4-bromo-2-morpholinobenzyl)piperazine-1-carboxylate]	–	–	< 100	–
O=C(OC(C(F)(F)F)C(F)(F)F)N1CCN(Cc2ccc(Cl)cc2N2CCOCC2)CC1 [Example 9t, 1,1,1,3,3,3-hexafluoropropan-2-yl 4-(4-chloro-2-morpholinobenzyl)piperazine-1-carboxylate]	–	> 6250	–	–
O=C(OC(C(F)(F)F)C(F)(F)F)N1CCN(Cc2ccc(Br)cc2N2CCCC2)CC1 [Example 9x, 1,1,1,3,3,3-hexafluoropropan-2-yl 4-(4-bromo-2-(pyrrolidin-1-yl)benzyl)piperazine-1-carboxylate]	–	> 250	–	–
O=C(OC(C(F)(F)F)C(F)(F)F)N1CCN(Cc2ccccc2N2CCOCC2)CC1 [Example 9y, 1,1,1,3,3,3-hexafluoropropan-2-yl 4-(2-morpholinobenzyl)piperazine-1-carboxylate]	–	> 250	< 100	–
O=C(OC(C(F)(F)F)C(F)(F)F)N1CCN(Cc2ccc(Cl)cc2N2CCCC2)CC1 [Example 9z, 1,1,1,3,3,3-hexafluoropropan-2-yl 4-(4-chloro-2-(pyrrolidin-1-yl)benzyl)piperazine-1-carboxylate]	–	> 10000	–	–
O=C(OC(C(F)(F)F)C(F)(F)F)N1CCN(Cc2cc(-c3ccccc3)on2)CC1 [Example 10b, 1,1,1,3,3,3-hexafluoropropan-2-yl 4-((5-phenylisoxazol-3-yl)methyl)piperazine-1-carboxylate]	–	–	100 to 1000	–
Cc1nn(-c2ccccc2)cc1CN1CCN(C(=O)OC(C(F)(F)F)C(F)(F)F)CC1 [Example 10c, 1,1,1,3,3,3-hexafluoropropan-2-yl 4-((3-methyl-1-phenyl-1H-pyrazol-4-yl)methyl)piperazine-1-carboxylate]	–	> 6250	–	–
Cn1nc(-c2ccccc2)cc1CN1CCN(C(=O)OC(C(F)(F)F)C(F)(F)F)CC1 [Example 10d, 1,1,1,3,3,3-hexafluoropropan-2-yl 4-((1-methyl-3-phenyl-1H-pyrazol-5-yl)methyl)piperazine-1-carboxylate]	–	> 10000	–	–
Cn1cc(CN2CCN(C(=O)OC(C(F)(F)F)C(F)(F)F)CC2)c(-c2ccccc2)n1 [Example 10e, 1,1,1,3,3,3-hexafluoropropan-2-yl 4-((1-methyl-3-phenyl-1H-pyrazol-4-yl)methyl)piperazine-1-carboxylate]	–	> 10000	–	–
Cn1ncc(Br)c1CN1CCN(C(=O)OC(C(F)(F)F)C(F)(F)F)CC1 [Example 10f, 1,1,1,3,3,3-hexafluoropropan-2-yl 4-((4-bromo-1-methyl-1H-pyrazol-5-yl)methyl)piperazine-1-carboxylate]	–	–	100 to 1000	–
O=C(OC(C(F)(F)F)C(F)(F)F)N1CCN(Cc2ccc(-c3ccccc3)cc2N2CCOCC2)CC1 [Example 11f, 1,1,1,3,3,3-hexafluoropropan-2-yl 4-((3-morpholino-[1,1′-biphenyl]-4-yl)methyl)piperazine-1-carboxylate]	–	–	> 1000	–
Cn1cc(CN2CCN(C(=O)OC(C(F)(F)F)C(F)(F)F)CC2)c(-c2ccccc2Cl)n1 [l0g, 1,1,1,3,3,3-hexafluoropropan-2-yl 4-[[3-(2-chlorophenyl)-1-methyl-1H-pyrazol-4-yl]methyl]piperazine-1-carboxylate]	–	> 10000	–	–
